Test results published in US8415272B2, “Quinoline derivatives and their use as fungicides” (Syngenta Crop Protection LLC, priority 2008, dated 2013).

Columns and labels:
Septoria nodorum = experiment: Leaf disk assay, Septoria nodorum (wheat glume blotch), preventive; format: in vivo; settings: Parastagonospora nodorum, foliar, 96 h, wheat leaf segments, assessed four days after inoculation, read-out: control of fungal infection, Septoria nodorum
Septoria tritici = experiment: Growth inhibition in nutrient broth, Septoria tritici (leaf blotch), photometric; format: cell-based; settings: Zymoseptoria tritici, PDB broth, 24 C, 72 hrs, read-out: control of fungal infection, Septoria tritici
Phytophthora infestans = experiment: whole plant or invertebrate; format: in vivo; settings: in Solanum lycopersicum, foliar, 96 h, read-out: control of fungal infection, Phytophthora infestans
Pythium ultimum = experiment: Growth inhibition in potato dextrose broth, Pythium ultimum (damping off), photometric; format: cell-based; settings: Globisporangium ultimum, 24° C., 48 hours, read-out: control of fungal infection, Pythium ultimum
Description: The compounds were tested in a leaf disk assay, with methods described below. The test compounds were dissolved in DMSO and diluted into water to 200 ppm. In the case of the test on Pythium ultimum, they were dissolved in DMSO and diluted into water to 20 ppm. Pythium ultimum (Damping off): Mycelial fragments of the fungus, prepared from a fresh liquid culture, were mixed into potato dextrose broth. A solution of the test compound in dimethyl sulphoxide was diluted with water to 20 ppm then placed into a 96-well microtiter plate and the nutrient broth containing the fungal spores was added. The test plate was incubated at 24° C. and the inhibition of growth was determined photometrically after 48 hours.

Plasmopara viticola = experiment: Leaf disk assay, Plasmopara viticola (downy mildew of grapevine), preventive; format: in vivo; settings: foliar, 168 h, grapevine leaf disks, assessed seven days after inoculation, read-out: control of fungal infection, Plasmopara viticola
[1] = tested on: Erysiphe graminis f.sp. tritici; experiment: Leaf disk assay, Erysiphe graminis f.sp. tritici (wheat powdery mildew), preventive; format: in vivo; settings: Blumeria graminis, foliar, 96 h, wheat leaf segments, assessed four days after inoculation, read-out: control of fungal infection, Erysiphe graminis f.sp. tritici
Description: The compounds were tested in a leaf disk assay, with methods described below. The test compounds were dissolved in DMSO and diluted into water to 200 ppm. In the case of the test on Pythium ultimum, they were dissolved in DMSO and diluted into water to 20 […] graminis f.sp. tritici (wheat powdery mildew): Wheat leaf segments were placed on agar in a 24-well plate and sprayed with a solution of the test compound. After allowing to dry completely, for between 12 and 24 hours, the leaf disks were inoculated with a spore suspension of the fungus. After appropriate incubation the activity of a compound was assessed four days after inoculation as preventive fungicidal activity.

SMILES	pest or weed control at 200 ppm (Septoria nodorum) [%]	inhibition of growth at 60 ppm (Septoria tritici) [%]	pest or weed control at 200 ppm (Phytophthora infestans) [%]	inhibition of growth at 20 ppm (Pythium ultimum) [%]	pest or weed control at 200 ppm (Plasmopara viticola) [%]	pest or weed control at 200 ppm [1] [%]
COCC(C)(COC)NC(=O)C(Oc1ccc2ncc(C#C[Si](C)(C)C)cc2c1)SC (centres unmarked) [Example 81]	≥ 60	≥ 60	≥ 60			
C#Cc1cnc2ccc(OC(SC)C(=O)NC(C)(C#N)CF)cc2c1 (centres unmarked) [Example 92]				≥ 60		
C#Cc1cnc2ccc(OC(OC)C(=O)NC(C)(C)C=O)cc2c1 (centres unmarked) [Example 221]		≥ 60	≥ 60	≥ 60	≥ 60	≥ 60
C#CC(C)(C)NC(=O)C(Oc1cc(C)c2ncc(C#CCOC)cc2c1)SC (centres unmarked) [Example 36]		≥ 60		≥ 60		
COCOCC(C)(C)NC(=O)C(Oc1cc(C)c2ncc(C#C[Si](C)(C)C)cc2c1)SC (centres unmarked) [Example 60]		≥ 60				
COCC#Cc1cnc2c(C)cc(OC(SC)C(=O)NC(C)(C#N)COC)cc2c1 (centres unmarked) [Example 33]		≥ 60	≥ 60	≥ 60		
C#Cc1cnc2ccc(OC(SC)C(=O)N(C)C3(CO)CCC3)cc2c1 (centres unmarked) [Example 154]				≥ 60		
CSC(Oc1cc(Cl)c2ncc(C#C[Si](C)(C)C)cc2c1)C(=O)NC(C)(C)C#CCCCCl (centres unmarked) [Example 120]		≥ 60				
COCC(C)(C#N)NC(=O)C(Oc1ccc2ncc(C#CCO)cc2c1)SC (centres unmarked) [Example 52]			≥ 60	≥ 60		
C#Cc1cnc2ccc(OC(SC)C(=O)NC3(C)CSC3)cc2c1 (centres unmarked) [Example 224]		≥ 60		≥ 60		
CC#Cc1cnc2c(C)cc(OC(SC)C(=O)NC(C)(C#N)COC)cc2c1 (centres unmarked) [Example 38]		≥ 60		≥ 60		≥ 60
CC#Cc1cnc2c(C)cc(OC(SC)C(=O)NC(C)(C)C)cc2c1 (centres unmarked) [Example 37]		≥ 60				
C#Cc1cnc2ccc(OC(SC)C(=O)NC3(C=O)CCC3)cc2c1 (centres unmarked) [Example 150]	≥ 60		≥ 60		≥ 60	≥ 60
COCC#CC(C)(C)NC(=O)C(Oc1cc2cc(C#C[Si](C)(C)C)cnc2cc1F)SC (centres unmarked) [Example 58]		≥ 60				≥ 60
COCC#CC(C)(C)NC(=O)C(Oc1cc(Cl)c2ncc(C#CCF)cc2c1)SC (centres unmarked) [Example 227]			≥ 60		≥ 60	≥ 60
C#Cc1cnc2ccc(OC(OC)C(=O)NC(C)(C)CO)cc2c1 (centres unmarked) [Example 220]		≥ 60	≥ 60	≥ 60	≥ 60	≥ 60
COCC#Cc1cnc2ccc(OC(SC)C(=O)NC(C)(C#N)COC)cc2c1 (centres unmarked) [Example 43]			≥ 60	≥ 60		≥ 60
CSC(Oc1cc2cc(C#C[Si](C)(C)C)cnc2cc1F)C(=O)NC(C)(C)C (centres unmarked) [Example 101]		≥ 60				
C#Cc1cnc2c(F)c(F)c(OC(SC)C(=O)NC(C)(C#N)COC)cc2c1 (centres unmarked) [Example 216]		≥ 60			≥ 60	≥ 60
C#Cc1cnc2ccc(OC(SC)C(=O)NC(C)(C#C)C=O)cc2c1 (centres unmarked) [Example 161]			≥ 60	≥ 60	≥ 60	

SMILES	pest or weed control at 200 ppm (Septoria nodorum) [%]	inhibition of growth at 60 ppm (Septoria tritici) [%]	pest or weed control at 200 ppm (Phytophthora infestans) [%]	inhibition of growth at 20 ppm (Pythium ultimum) [%]	pest or weed control at 200 ppm (Plasmopara viticola) [%]	pest or weed control at 200 ppm [1] [%]
CCC#CC(C)(C)NC(=O)C(Oc1ccc2ncc(C#C[Si](C)(C)C)cc2c1)SC (centres unmarked) [Example 116]		≥ 60	≥ 60		≥ 60	≥ 60
CC#CC(C)(C)NC(=O)C(Oc1ccc2ncc(C#CCO)cc2c1)SC (centres unmarked) [Example 50]			≥ 60	≥ 60	≥ 60	
COC(Oc1ccc2ncc(C#C[Si](C)(C)C)cc2c1)C(=O)NC(C)(C)C (centres unmarked) [Example 80]		≥ 60	≥ 60		≥ 60	≥ 60
CCC#CC(C)(C)NC(=O)C(Oc1cc(Cl)c2ncc(C#C[Si](C)(C)C)cc2c1)SC (centres unmarked) [Example 119]		≥ 60			≥ 60	
COCCC#CC(C)(C)NC(=O)C(Oc1ccc2ncc(C#C[Si](C)(C)C)cc2c1)SC (centres unmarked) [Example 100]		≥ 60	≥ 60	≥ 60	≥ 60	≥ 60
CSCC(C)(C#N)NC(=O)C(Oc1ccc2ncc(C#C[Si](C)(C)C)cc2c1)SC (centres unmarked) [Example 59]		≥ 60	≥ 60			
CCC(C)(C)NC(=O)C(Oc1ccc2ncc(C#C[Si](C)(C)C)cc2c1)SC (centres unmarked) [Example 91]		≥ 60			≥ 60	≥ 60
COCCC(C)(C)NC(=O)C(Oc1ccc2ncc(C#C[Si](C)(C)C)cc2c1)SC (centres unmarked) [Example 78]	≥ 60	≥ 60	≥ 60		≥ 60	≥ 60
CCOCC(C)(C)NC(=O)C(Oc1cc(C)c2ncc(C#C[Si](C)(C)C)cc2c1)SC (centres unmarked) [Example 89]		≥ 60				
C#CC(C)(C)NC(=O)C(Oc1ccc2ncc(C#CCO)cc2c1)SC (centres unmarked) [Example 51]			≥ 60	≥ 60	≥ 60	
C#CC(C)(C)NC(=O)C(Oc1ccc2ncc(C#CCOC)cc2c1)SC (centres unmarked) [Example 46]		≥ 60	≥ 60	≥ 60		≥ 60
CC#CC(C)(C)NC(=O)C(Oc1cc(C)c2ncc(C#CCOC)cc2c1)SC (centres unmarked) [Example 35]		≥ 60			≥ 60	
CSC(Oc1cc2cc(C#C[Si](C)(C)C)cnc2c(F)c1F)C(=O)NC(C)(C)C (centres unmarked) [Example 217]		≥ 60				
C#CC(C)(C)NC(=O)C(Oc1cc(C)c2ncc(C#CC)cc2c1)SC (centres unmarked) [Example 41]		≥ 60				
CC#Cc1cnc2c(C)cc(OC(SC)C(=O)NC(C)(C)C#CCOC)cc2c1 (centres unmarked) [Example 39]		≥ 60	≥ 60		≥ 60	
COCC(C)(C#N)NC(=O)C(Oc1cc(C)c2ncc(C#CCO)cc2c1)SC (centres unmarked) [Example 27]				≥ 60	≥ 60	≥ 60
CC#Cc1cnc2c(C)cc(OC(SC)C(=O)NC(C)(C)C#CC)cc2c1 (centres unmarked) [Example 40]		≥ 60				
COCC(C)(C#N)NC(=O)C(Oc1cc2cc(C#C[Si](C)(C)C)cnc2cc1F)SC (centres unmarked) [Example 5]		≥ 60	≥ 60		≥ 60	≥ 60
COCC#Cc1cnc2c(C)cc(OC(SC)C(=O)NC(C)(C)C)cc2c1 (centres unmarked) [Example 32]		≥ 60				
